Data reported in ChEMBL document CHEMBL1201862, “PubChem BioAssay data set” (2004).
Active and inactive are the calls of the source.

Columns and labels:
[1] = target: T1, Streptokinase A (Streptococcus pyogenes serotype M1, UniProt P10520); assay: S. pyogenes streptokinase expression inhibitors, potency, dose response, plasminogen activation absorbance, OD405 (AID 1914); format: functional, Streptococcus pyogenes M1 GAS;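 note: secreted streptokinase activity via plasminogen activation per viability signal from cell pellet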
T1 sequence (P10520 whole entry): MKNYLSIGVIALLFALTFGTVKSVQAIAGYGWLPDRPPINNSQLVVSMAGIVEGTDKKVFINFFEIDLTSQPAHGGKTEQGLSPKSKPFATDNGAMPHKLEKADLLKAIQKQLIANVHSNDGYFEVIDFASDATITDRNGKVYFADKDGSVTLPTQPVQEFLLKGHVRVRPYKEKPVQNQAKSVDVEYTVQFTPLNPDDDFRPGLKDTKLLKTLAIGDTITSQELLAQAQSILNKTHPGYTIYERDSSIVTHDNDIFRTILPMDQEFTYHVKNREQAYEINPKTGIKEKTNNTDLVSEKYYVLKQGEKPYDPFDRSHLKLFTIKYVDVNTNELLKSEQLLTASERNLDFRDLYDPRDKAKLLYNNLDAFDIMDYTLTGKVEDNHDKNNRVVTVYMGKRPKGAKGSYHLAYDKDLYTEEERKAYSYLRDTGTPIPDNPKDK

[2] = test system: Streptococcus; assay: Group A Streptococcus viability loss, dose response, counter-screen for streptokinase expression inhibitor project, luminescence, BacTiterGlo (AID 1915); format: functional, organism-based;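 note: potency for reduction of bacterial viability or growth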
[3] = target: T2, Heat shock factor protein 1 (Mus musculus, UniProt P38532); assay: inhibition of MG132-induced HSE-luciferase signal, confirmation, cell-based, NIH3T3, luminescence, dose retest (AID 2382); format: functional;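 note: NIH3T3 fibroblasts with HSF1-driven luciferase reporter stressed by proteasome inhibitor MG132; luminescence from HSF1-driven luciferase expression after 8 hours of MG132 stress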
T2 sequence (P38532 whole entry): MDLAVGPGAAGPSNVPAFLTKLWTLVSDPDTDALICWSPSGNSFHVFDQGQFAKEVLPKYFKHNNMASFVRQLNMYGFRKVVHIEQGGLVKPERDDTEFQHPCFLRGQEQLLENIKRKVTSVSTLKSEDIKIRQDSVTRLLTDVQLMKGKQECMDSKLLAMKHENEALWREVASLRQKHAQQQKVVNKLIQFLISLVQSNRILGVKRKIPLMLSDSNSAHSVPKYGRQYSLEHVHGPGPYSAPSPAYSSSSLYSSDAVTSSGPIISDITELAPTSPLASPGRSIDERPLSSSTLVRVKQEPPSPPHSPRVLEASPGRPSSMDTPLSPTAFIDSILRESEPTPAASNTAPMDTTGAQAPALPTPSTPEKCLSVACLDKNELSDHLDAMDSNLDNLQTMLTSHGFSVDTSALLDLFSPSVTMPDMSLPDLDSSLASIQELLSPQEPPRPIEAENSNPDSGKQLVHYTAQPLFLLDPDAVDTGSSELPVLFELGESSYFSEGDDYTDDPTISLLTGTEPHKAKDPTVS

[4] = HEp-2 cell cytotoxicity, dose response, cytotoxicity control for RSV inhibitor project, HTS (AID 2410); format: functional; settings: human respiratory syncytial virus
[5] = target: Cytochrome P450 2C19 (Homo sapiens, UniProt P33261); assay: Cytochrome panel assay with activity outcomes. Panel member name: p450-cyp2c19 Compounds with AC50 equal or less than 10 uM are considered active; format: functional; settings: read-out: AC50
[6] = target: T3, Cytochrome P450 1A2 (Homo sapiens, UniProt P05177);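 note: PubChem cytochrome P450 panel assay, CYP1A2 panel member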
T3 sequence (P05177 whole entry): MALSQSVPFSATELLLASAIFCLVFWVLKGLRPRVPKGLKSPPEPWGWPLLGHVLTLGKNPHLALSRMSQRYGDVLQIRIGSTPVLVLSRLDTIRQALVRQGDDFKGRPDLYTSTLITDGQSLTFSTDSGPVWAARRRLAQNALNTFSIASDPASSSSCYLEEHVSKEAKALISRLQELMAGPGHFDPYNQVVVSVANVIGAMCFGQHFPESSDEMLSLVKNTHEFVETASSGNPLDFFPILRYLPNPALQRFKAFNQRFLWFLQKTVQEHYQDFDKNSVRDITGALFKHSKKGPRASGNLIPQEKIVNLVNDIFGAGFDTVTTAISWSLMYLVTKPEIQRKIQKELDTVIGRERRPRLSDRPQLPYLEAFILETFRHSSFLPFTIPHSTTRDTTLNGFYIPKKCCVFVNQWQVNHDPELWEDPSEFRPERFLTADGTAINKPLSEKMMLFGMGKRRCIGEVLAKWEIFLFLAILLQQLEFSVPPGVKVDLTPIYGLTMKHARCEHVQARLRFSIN

[7] = target: Cytochrome P450 2C9 (Homo sapiens, UniProt P11712)
[8] = test system: Streptococcus sp. 'group A'; assay: growth inhibition of control SK(-) GAS strain, dose response, counter-screen for streptokinase expression inhibitor project, luminescence, kanamycin, BacTiterGlo, confirmation (AID 1900); format: functional, organism-based
[9] = test system: INS1; assay: beta cell apoptosis inhibitors, cytokine rescue, dose response, luminescence, retest (AID 449756); format: functional, cell-based; settings: Rattus norvegicus;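 note: cell death triggered by IL-1 beta plus TNF-alpha plus IFN-gamma mixture; protective hits raise ATP signal compared with cytokine alone wells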

Cytochrome P450 2C19, sequence (P33261 whole entry): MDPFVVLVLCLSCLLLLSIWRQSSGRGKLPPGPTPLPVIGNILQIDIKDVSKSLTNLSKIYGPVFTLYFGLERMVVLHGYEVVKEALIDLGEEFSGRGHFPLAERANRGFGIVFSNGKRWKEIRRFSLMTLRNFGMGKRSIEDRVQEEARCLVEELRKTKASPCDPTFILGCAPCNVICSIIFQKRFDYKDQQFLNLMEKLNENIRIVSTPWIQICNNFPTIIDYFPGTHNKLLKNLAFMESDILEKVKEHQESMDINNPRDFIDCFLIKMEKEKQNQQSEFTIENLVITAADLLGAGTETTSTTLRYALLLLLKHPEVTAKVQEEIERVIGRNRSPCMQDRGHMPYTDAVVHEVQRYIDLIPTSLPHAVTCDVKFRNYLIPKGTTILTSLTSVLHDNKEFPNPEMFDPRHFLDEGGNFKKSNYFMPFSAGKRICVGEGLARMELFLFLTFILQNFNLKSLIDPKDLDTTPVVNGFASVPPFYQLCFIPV
Cytochrome P450 2C9, sequence (P11712 whole entry): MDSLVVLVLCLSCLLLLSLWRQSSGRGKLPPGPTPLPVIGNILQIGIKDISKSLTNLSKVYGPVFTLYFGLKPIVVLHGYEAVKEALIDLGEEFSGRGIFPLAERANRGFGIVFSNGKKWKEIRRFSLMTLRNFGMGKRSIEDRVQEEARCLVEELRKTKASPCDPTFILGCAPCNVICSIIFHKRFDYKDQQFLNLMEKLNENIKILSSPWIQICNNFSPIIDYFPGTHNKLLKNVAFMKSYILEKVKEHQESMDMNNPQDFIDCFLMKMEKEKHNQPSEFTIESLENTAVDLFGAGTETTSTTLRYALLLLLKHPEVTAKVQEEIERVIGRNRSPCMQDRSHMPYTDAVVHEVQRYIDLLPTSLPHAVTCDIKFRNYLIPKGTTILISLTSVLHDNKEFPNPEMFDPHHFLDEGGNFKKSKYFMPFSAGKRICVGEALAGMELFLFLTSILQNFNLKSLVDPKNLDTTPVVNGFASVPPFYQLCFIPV

Row | Structure (SMILES) | EC50 [2] | EC50 [3] | EC50 [8] | other results
1 | CCOC(=O)N1CCN(C(=O)c2ccc3c(=O)n(CCC4=CCCCC4)c(=S)[nH]c3c2)CC1 | > 150 µM (not active) | – | – | EC50 [1]: 29.8 µM (active)
2 | Cc1ccc(N(CC(=O)NCCSCc2ccco2)S(C)(=O)=O)cc1 | – | > 195 µM (not active) | – | –
3 | O=C(NCCC1CCCCN1S(=O)(=O)c1ccc(F)cc1)C(=O)Nc1ccccc1F (configuration not stated) | – | > 195 µM (not active) | – | –
4 | COc1cccc(NC(=S)N(CCc2c(C)[nH]c3ccc(C)cc23)Cc2cccs2)c1 | – | – | – | CC50 [4]: 13.4 µM (active)
5 | Cc1cc(C)cc(NC(=O)N2CCN(Cc3ccc4c(c3)OCO4)CC2)c1 | – | > 195 µM (not active) | – | –
6 | CC1(O)CC(=O)N(c2ccccc2)O1 (configuration not stated) | – | – | – | AC50 [5]: 17.8 µM (inconclusive); AC50 [6]: 22.4 µM (inconclusive); AC50 [7]: 10 µM (inconclusive)
7 | CCn1cnc2sc(C(=O)Oc3cccc(C)c3)c(C)c2c1=O | 28.8 µM (active) | – | 11.8 µM (active) | EC50 [1]: > 150 µM (not active)
8 | Cc1nn(C(C)C(=O)NC2C(=O)N3C(C(=O)O)=C(CSc4nnnn4C)CSC23)cc1Cl (configuration not stated) | 0.337 µM (active) | – | 0.112 µM (active) | –
9 | Cn1c(=O)c2c3c(sc2n2c(SCc4ccccc4)nnc12)CCCC3 | – | – | – | CC50 [4]: > 50 µM (active)
10 | COc1ccccc1N1CC(C)C(=O)NC1=S (configuration not stated) | – | > 195 µM (not active) | – | –
11 | NCCCC[C@@H](C(=O)N1CCNCC1)n1cc([C@@H](N)CO)nn1 | – | > 195 µM (not active) | – | –
12 | CC(Sc1nc2cc([N+](=O)[O-])ccc2n1-c1cccc(C(F)(F)F)c1)C(=O)NC(N)=O (configuration not stated) | > 150 µM (not active) | – | > 150 µM (not active) | EC50 [1]: > 150 µM (not active)
13 | O=C(Cn1cnc2c(oc3ccccc32)c1=O)NCc1ccco1 | – | – | – | AC50 [5]: 20 µM (inconclusive); AC50 [6]: 14.1 µM (inconclusive); AC50 [7]: 8.91 µM (inconclusive)
14 | c1ccc2c(c1)CC1(CCCCC1)n1nnnc1-2 | – | > 195 µM (not active) | – | –
15 | CC1(C)C[C@H](O)[C@]2(CO)CC[C@]3(C)C(=CCC4[C@@]5(C)CC[C@H](O)C(C)(C)C5CC[C@]43C)[C@@H]2C1 (some centres not stated) | – | – | – | CC50 [4]: 36.2 µM (active)
16 | CCOC(=O)Cn1c(CN2CCN(c3cccc(Cl)c3)CC2)nc2c1c(=O)[nH]c(=O)n2C | – | > 195 µM (not active) | – | –
17 | COC(=O)C1=C(C(=O)OC)[C@@H]2N(C)c3ccccc3[C@@]23C[C@@H](C(=O)OC)N(C(=O)CC(C)C)C3=N1 | – | > 195 µM (not active) | – | –
18 | COCC(C)NC(=O)c1ccc2nc(-c3ccccc3)c(-c3ccccc3)nc2c1 (configuration not stated) | – | > 195 µM (not active) | – | –
19 | CCN(CC(=O)NCC1CCCO1)S(=O)(=O)c1ccc(Cl)cc1 (configuration not stated) | > 150 µM (not active) | – | > 150 µM (not active) | EC50 [1]: > 150 µM (not active)
20 | CCOC(=O)c1cccc(N2C(N)=NC(N)=NC2(C)C)c1 | 0.63 µM (active) | – | 0.127 µM (active) | –
21 | CC12CC(c3ccccc3O1)C(C(=O)NCc1ccccc1)C(=O)N2 (configuration not stated) | – | > 195 µM (not active) | – | –
22 | CCc1ccc(Nc2n[n+](-c3ccccc3)c(-c3ccc(OC)c(Br)c3)s2)cc1 | – | – | – | CC50 [4]: 31.3 µM (active)
23 | Cc1cccc(NC(=O)c2ccc(S(=O)(=O)N(C)CC3CCCO3)cc2)c1C (configuration not stated) | > 150 µM (not active) | – | > 150 µM (not active) | EC50 [1]: > 150 µM (not active)
24 | Cc1nc(C(=O)NNC(=O)c2c(-c3c(Cl)cccc3Cl)noc2C)cs1 | – | – | – | AC50 [9]: 6.91 µM (active)
25 | Fc1ccc2nc(Nc3nc4cc5c(cc4s3)OCO5)sc2c1 | 3.02 µM (active) | – | 7.04 µM (active) | –
26 | COc1ccccc1Nc1ncnc2c1c(C)c(C)n2CCO | – | – | – | CC50 [4]: > 50 µM (active)

Row | Structure (SMILES) | EC50 [2] | EC50 [3] | EC50 [8] | other results
27 | CC1(C)Cc2nc3sc4c(OCc5ccccc5)ncnc4c3cc2CO1 | 11 µM (active) | – | 4.04 µM (active) | EC50 [1]: > 150 µM (not active)
28 | c1ccc(-n2nnnc2Oc2ccc(-c3nnco3)cc2)cc1 | – | > 195 µM (not active) | – | –
29 | Oc1ccccc1CNc1ccc(OC(F)(F)F)cc1 | – | > 195 µM (not active) | – | –
30 | Cc1ccccc1Nc1nc(N)nc(CN(C)Cc2ccccc2Cl)n1 | > 150 µM (not active) | – | > 150 µM (not active) | EC50 [1]: > 150 µM (not active)
31 | COc1cc2c3c(c1)/C(=C1/SC(=S)NC1=O)C(=O)N3C(C)(C)C=C2C | 8.28 µM (active) | – | 2.63 µM (active) | EC50 [1]: 1.72 µM (active)
32 | O=C(COc1ccc(Cl)cc1)NCc1nnc2c3ccccc3c(-c3ccccc3)nn12 | – | – | – | CC50 [4]: 17.9 µM (active)
33 | COc1ccc(C=O)cc1Cn1ccnc1C | – | > 195 µM (not active) | – | –
34 | Cc1c(C(=O)OCC(=O)N2CC(C)OC(C)C2)oc2ccc(Br)cc12 (configuration not stated) | – | > 195 µM (not active) | – | –
35 | CC(=O)c1cccc(NC(=O)CN2C(=O)c3ccccc3C2=O)c1 | – | > 195 µM (not active) | – | –
36 | COC(=O)C1=CN(c2ccc(OC)cc2)C=C(C(=O)OC)C1c1ccc(C)c([N+](=O)[O-])c1 | – | – | – | CC50 [4]: 48.1 µM (active)
37 | Cc1nnc(SCC(=O)Nc2nccs2)nc1O | – | – | – | AC50 [5]: 10 µM (inconclusive); AC50 [6]: 31.6 µM (inconclusive); AC50 [7]: 10 µM (inconclusive)
38 | CN1C(=O)/C(=C/c2ccc(C(F)(F)F)cc2)Sc2ccc(C(=O)N3CCN(c4ccccn4)CC3)cc21 | 12.5 µM (active) | – | 1.53 µM (active) | EC50 [1]: > 150 µM (not active)
39 | Cc1ccc(-c2cn(-c3ccccc3)c(S)n2)cc1C | – | > 195 µM (not active) | – | –
40 | C=CCn1c(NCc2ccc(OC)cc2O)nc2ccccc21 | – | – | – | CC50 [4]: 37.8 µM (active)
41 | O=S(=O)(c1ccc2c(c1)OCCO2)N1CCC(c2nc(O)c3nnn(Cc4ccc(F)cc4)c3n2)CC1 | – | – | – | CC50 [4]: 37.6 µM (active)
42 | CCOC(=O)c1c(C)[nH]c(C(=O)OCC(=O)NC(C)(C)C)c1C | – | – | – | AC50 [9]: 5.11 µM (active)
43 | Cc1nc2c(-c3ccccc3)c(C)nn2c(O)c1Cc1ccccc1 | 18.5 µM (active) | – | 9.56 µM (active) | EC50 [1]: > 50 µM (not active)
44 | CCn1c(SCC(=O)Nc2oc(C)c3c(C)nnc(O)c23)nc2sc(C)c(C)c2c1=O | – | > 195 µM (not active) | – | –
45 | O=C(N/N=C/c1ccccc1)c1c(O)nc2ccccc2c1O | – | – | – | AC50 [9]: 6.26 µM (active)
46 | FC(F)(F)c1ccccc1/C=N/n1c(S)nnc1C1CCCCC1 | 15.7 µM (active) | – | 8.41 µM (active) | EC50 [1]: 32.4 µM (inconclusive)
47 | CCOC(=O)c1ccc(/N=c2\sc(C(=O)OC)cc(=O)n2Cc2ccc3c(c2)OCO3)cc1 | – | – | – | CC50 [4]: 20.8 µM (active)
48 | COc1ccc(CN2C(=O)c3ccccc3C(/C=N\OCc3ccc(C)cc3)C2=O)cc1 (configuration not stated) | 11.2 µM (active) | – | 1.67 µM (active) | EC50 [1]: > 150 µM (not active)
49 | COc1cc(Cc2cc(N)nc(N)n2)cc(OC)c1OC | > 150 µM (not active) | – | 3.11 µM (active) | EC50 [1]: > 150 µM (not active)
50 | Cc1ccc(S(=O)(=O)Nc2ccccc2N(C)S(=O)(=O)c2ccc(C)cc2)cc1 | – | – | – | AC50 [9]: 10.2 µM (active)
51 | C[C@H](CCC(=O)NCC(=O)O)[C@H]1CC[C@H]2[C@@H]3[C@H](O)C[C@@H]4C[C@H](O)CC[C@]4(C)[C@H]3C[C@H](O)[C@]12C [GLYCOCHOLIC ACID] | > 150 µM (not active) | – | > 150 µM (not active) | EC50 [1]: > 150 µM (not active)
